From patent US9422527B2, “Drug target site within gp120 of HIV” (priority 2011, dated 2016)
Where two headings read alike, the source gives them in different places.

What was measured:
[1] = tested on: "D-I-A" mutant (pNL-Bal, gp41 G36D, V38A); conditions: for IC50: "D-I-A" mutant, R5; for Rf (resistance factor: IC50 on mutant virus / IC50 on reference strain): "D-I-A" vs pNL-Bal; for Resistance factor (IC50 mut/IC50 wt) IC50 fold increase: Table II, "D-I-A" vs wild-type pNL-Bal
[2] = tested on: pNL-Bal HIV-1 virus; conditions: for Rf (resistance factor): pNL-Bal reference strain, ratio to itself
Description: (§3) Two compounds were evaluated for their activity as inhibitor of HIV replication on three different lab strains using the deCIPhR cellular format.
(§4) Compound stocks were prepared as 1.5 mM solution in 100% DMSO and vials were agitated for two hours at 50° C. Stock solutions were kept at −20° C., light protected as aliquots. Working dilutions (1/3 log) were prepared extemporaneously by serial dilutions in H2O/DMSO (95/5). Ten μL of working dilutions were then pipetted and directly tested for anti-HIV activity in the 200 μL final volume of the deCIPhR cellular assay format, yielding final concentrations of 7'500, 3'481, 1'616, 750, 348, 162, 75, 35, 16, 8 and 3 nM.
(§5) The DNA sequence coding for Vpu, Tat, Rev, Env, and Nef from the CCR5-tropic clone BAL2 (HIVBAL2A, Genbank accession number #M68894) was introduced by PCR-cloning into the reference proviral strain pNL4-3 (Genbank accession number #AF324493), where it replaced the corresponding region. Presence of insert was ascertained by restriction digest analysis and double sequencing on ABI 310 prism sequencer. After transfection, pNL-BaL produces a full-length infectious virus often used as reference for a B-Subtype, CCR5-tropic strain (Donaldson et al., 1994).
(§6) Principle of Dual-Enhancement of Cell-Infection to Phenotype Resistance (deCIPhR™): deCIPhR test is a proprietary assay system developed by InPheno AG (FIG. 7):
(§7) Fully infectious HIV-1 is produced from a proviral reference DNA reflecting a reference HIV-1 virus. Recombinants carrying an exchanged specific-sequence (e.g. mutants resistant to existing HIV-1 inhibitors or sequences issued from clinical situations) can easily be engineered by PCR-based amplification/ligation (see paragraph 3). The unique test format allows 3 to 5 rounds of viral replication and permits a dynamic parallel read-out of viral fitness and resistance to the respective drugs under investigation. Colorimetric readout (405 nm) is translated in percent viral inhibition through normalization with positive and negative control wells included in each 96 well-plate.
(§8) Each mutated proviral DNA is transfected into a human epitheloid cell line using lipofectant agent (lipofectamine 2000, Invitrogen) following the manufacturer's instructions. Cell to cell spread and replication of recombinant viruses is allowed for but also restricted to a period of four days in the absence or presence of specific drugs by co-culture with a second cell line expressing both chemokine receptors CXCR4 and CCR5. Finally, culture supernatants are transferred to a third reporter cell line also expressing both kinds of co-receptors. The infection is incubated for another 48 hours period, after which cells are fixed (formaldehyde/glutaraldehyde) prior to incubation with a chromogenic substrate for beta-galactosidase, typically ortho-nitrophenyl-galactopyranoside.
(§9) A range of twelve concentrations of each compound was tested in triplicates in the deCIPhR format on each mutated provirus.
(§10) The two compounds under investigation were tested along with reference compounds T20 and EFV on three wild-type viruses (pNL4-3, green curves; pNL-Bal, blue curves and pNL-AD87, orange curves) using the deCIPhR cellular system (see paragraph 4.1).

[3] = tested on: pNL-AD87 HIV-1 virus; conditions: cell to cell infection, pNL-AD87, R5 tropism
Description: as §3, §4
(§11) The DNA sequence coding for Vpu, Tat, Rev, Env, and Nef from the CCR5-tropic clone AD87 (HIV strain AD8, Genbank accession number #AF004394) was introduced by PCR-cloning into the reference proviral strain pNL4-3 (Genbank accession number #AF324493), where it replaced the corresponding region. Presence of insert was ascertained by restriction digest analysis and double sequencing on ABI 310 prism sequencer. After transfection, pNL-AD87 produces a full-length infectious virus often used as reference for a B-Subtype, CCR5-tropic strain (Theodore et al., 1996).
as §6
(§12) Fully infectious HIV-1 is produced from a proviral reference DNA reflecting a reference HIV-1 virus. Recombinants carrying an exchanged specific-sequence (e.g. mutants resistant to existing HIV-1 inhibitors or sequences issued from clinical situations) can easily be engineered by PCR-based amplification/ligation (see paragraph 3). The unique test format allows 3 to 5 rounds of viral replication and permits a dynamic parallel read-out of viral fitness and resistance to the respective drugs under investigation. Colorimetric readout (405 nm) is translated in percent viral inhibition through normalization with positive and negative control wells included in each 96 well-plate. […]

[4] = tested on: pNL4-3 HIV-1 virus; conditions: cell to cell infection, pNL4-3, X4 tropism
Description: as §4
(§13) Fully infectious HIV-1 is produced from a proviral reference DNA reflecting a reference HIV-1 virus. […] The unique test format allows 3 to 5 rounds of viral replication and permits a dynamic parallel read-out of viral fitness and resistance to the respective drugs under investigation. Colorimetric readout (405 nm) is translated in percent viral inhibition through normalization with positive and negative control wells included in each 96 well-plate.
as §8, §9

[5] = tested on: pNL4-3 HIV-1 virus; test: microbe, parasite or virus in culture; format: cell-based; conditions: virus to cell infection, pNL4-3, X4 tropism
Description: Fully infectious HIV-1 is produced from proviral reference DNA reflecting a reference wild-type HIV-1 virus (pNL4-3, Genbank #AF003888).
(§1) Format for virus to cell infection: Briefly, the assay was performed in 6 well tissue culture plates and included 50'000 HIV-producing cells (HeLa) in a final volume of 2 mL DMEM medium (Gibco, Parsley, UK). After 2 days of incubation, […] of viral supernatant was added to 5'000 pre-incubated HIV-reporter cells (HeLaCCR5) in a final volume of […] of RPMI medium (Gibco, Parsley, UK) including […] of substances to be tested.
(§2) In this experiment only pNL4-3 reference HIV strain was used.
Graphs in FIG. 10 show the inhibition curves as percent of virus inhibition as a function of increasing concentrations of each compound. The table in FIG. 10 reports the calculated parameters of HIV inhibition (IC50, IC90 and Hill's coefficient).

[6] = tested on: "G-I-A" mutant (pNL-Bal, gp41 V38A); conditions: for IC50: "G-I-A" mutant, R5; for Rf (resistance factor: IC50 on mutant virus / IC50 on reference strain): "G-I-A" vs pNL-Bal; for Resistance factor (IC50 mut/IC50 wt) IC50 fold increase: Table II, "G-I-A" vs wild-type pNL-Bal
[7] = tested on: pNL4-3 HIV-1 virus; test: microbe, parasite or virus in culture; conditions: Human immunodeficiency virus 1
Description: as §4, §13, §8, §9

[8] = tested on: pNL-Bal HIV-1 virus; test: microbe, parasite or virus in culture; conditions: Human immunodeficiency virus 1, BAL
Description: as §3, §4, §5, §6, §7, §8, §9, §10

[9] = tested on: pNL-AD87 HIV-1 virus; test: microbe, parasite or virus in culture; conditions: Human immunodeficiency virus 1
Description: as §3, §4, §11, §6, §12

[10] = tested on: HIV-reporter cells (HeLaCCR5); test: cytotoxicity microscopically observed in virus-to-cell infection format; format: cell-based; conditions: highest concentration
Description: as §1, §2

[11] = tested on: deCIPhR cellular system; conditions: at tested concentrations
From the text: as §8, §10

[12] = tested on: HIV; test: profiling of anti-HIV activity, summary over lab strains; format: cell-based, HIV-1; conditions: summary of Example 2 results
[13] = tested on: binding of gp120 to α4β7; test: gp120 binding to α4β7 in cell extracts (previous studies); parameters: species or system human; conditions: read-out: activity of inhibition of the binding of gp120 to α4β7
From the text: FIG. 37: Activity of a panel of inhibitors in blocking the binding of gp120 to a4b7. (a) The left chart depicts data collected in example 3 using ELISA assay. (b) The right chart depicts data collected by screening cell extracts. Bold letters used for a compound denote active compounds. The remaining compounds are weak or non-inhibitors All assays were repeated six times (three times for each anti-gp120 mAb used in the case of the ELISA data) and an average was presented. All values were obtained within 5% deviation.
This method was advanced into an ELISA format and applied to screen the number of compounds provided within the research period.
Outcome: Repandusinic acid A inhibited the binding of gp120 to α4β7 with an activity of 1.2±0.1 μM using the described an ELISA assay.
The five-step assay developed was applied to screen the panel of compounds provided. […] The experiments were run in triplicate using two antibodies against gp120. The data was compiled and plotted (FIG. 37a) and compared against the results with less accuracy obtained in our prior studies (FIG. 37b). Only modest changes were observed between the in vitro studies conducted herein (FIG. 37a) and those conducted on cell lysates (FIG. 37b). Results obtained are described in detail in the figure legend to FIG. 37 herein above.

Molecule	IC50 [1]	Rf (resistance factor: IC50 on mutant virus / IC50 on reference strain) [1]	Resistance factor (IC50 mut/IC50 wt) IC50 fold increase [1]	Rf (resistance factor) [2]	IC50 [6]	Rf (resistance factor: IC50 on mutant virus / IC50 on reference strain) [6]	Resistance factor (IC50 mut/IC50 wt) IC50 fold increase [6]	IC50 [7]	IC50 [9]	other results
enfuvirtide	2270 nM	227	227	1	127 nM	12.7	13	–	–	IC50 ([2]; read-out: IC50 (concentration inhibiting 50% of viral replication), cell to cell infection, pNL-Bal, R5 tropism): 10 nM; IC50 [3]: 63 nM; IC50 [4]: 76 nM; IC50 ([5]; read-out: IC50): 48 nM
O=C1Nc2ccc(Cl)cc2[C@@](C#CC2CC2)(C(F)(F)F)O1 [EFV, Efavirenz]	3 nM	0.6	0.5	1	1.7 nM	0.3	0.3	9 nM	1 nM	IC50 ([8]; read-out: IC50 (concentration inhibiting 50% of viral replication)): 0.005 µM; IC50 ([5]; Human immunodeficiency virus 1, read-out: IC50): 2 nM
O=C(CNC1CCCCC1)Nc1cccc(C(=O)Nc2cccc(C(F)(F)F)c2)c1 [T0520-5895]	> 30000 nM	>40	>40	1	7600 nM	0.5	0.5	> 30000 nM	250 nM	IC50 ([8]; read-out: IC50, extrapolated value): 15.1 µM; signs of cytotoxicity [10]: signs of cytotoxicity; signs of cytotoxicity [11]: without signs of cytotoxicity; IC50 [5]: inactive; anti-HIV activity [12]: significant anti-HIV activity
O=C(O)C=C(C(=O)OC1C2COC(=O)c3cc(O)c(O)c(O)c3-c3c(cc(O)c(O)c3O)C(=O)OC1C(O)C(OC(=O)c1cc(O)c(O)c(O)c1)O2)C1c2c(cc(O)c(O)c2O)C(=O)OC1C(=O)O (stereo not shown) [Repandusinic acid A]	–	–	–	–	–	–	–	–	–	IC50 [13]: 9.08 µM
